Reference: the supplement of paper PMC10307832

Experiments:
Experiment in all cases: relative viability (nuclei count vs DMSO), 5 days (fraction); higher = more cells survive
201T = system: 201T
Outline: (§1)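 Values are medians from duplicate plates. Each reflects relative viability, defined as the nuclei count of treated wells over that of vehicle wells. Lung cancer cell lines in 1536-well plates were pin-tool dosed one day after seeding with one drug alone or with a fixed anchor-drug dose plus five library-drug doses (not always all listed) in √10 steps, then fixed, stained and imaged at 4× after 5 days.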

A-427 = system: A-427
Outline: as §1

COR-L23 = system: COR-L23
Outline: as §1

H3255 = system: H3255
Outline: as §1

LCLC-103H = system: LCLC-103H
Outline: as §1

LCLC-97TM1 = system: LCLC-97TM1
Outline: as §1

LK-2 = system: LK-2
Outline: as §1

LU99A = system: LU99A
Outline: as §1

NCI-H1650 = system: NCI-H1650
Outline: as §1

NCI-H1651 = system: NCI-H1651
Outline: as §1

NCI-H1793 = system: NCI-H1793
Outline: as §1

NCI-H1944 = system: NCI-H1944
Outline: as §1

NCI-H2347 = system: NCI-H2347
Outline: as §1

NCI-H23 = system: NCI-H23
Outline: as §1

NCI-H460 = system: NCI-H460
Outline: as §1

NCI-H650 = system: NCI-H650
Outline: as §1

NCI-H727 = system: NCI-H727
Outline: as §1

NCI-H838 = system: NCI-H838
Outline: as §1

PC-14 = system: PC-14
Outline: as §1

PC-3 [JPC-3] = system: PC-3 [JPC-3]
Outline: as §1

RERF-LC-KJ = system: RERF-LC-KJ
Outline: as §1

SW 1573 = system: SW 1573
Outline: as §1

SW 900 = system: SW 900
Outline: as §1

## COc1cc(N2CCC(C(N)=O)CC2)ccc1Nc1nc(N)c(Cl)c(Nc2ccccc2S(=O)(=O)C(C)C)n1 [HG-5-88-01] + Cc1cc(Nc2cc(N3CCN(C)CC3)nc(Sc3ccc(NC(=O)C4CC4)cc3)n2)n[nH]1 [Tozasertib] (partner 0.1 µM)
201T; first compound 0.04 µM
  relative viability: 0.963
201T; first compound 0.1265 µM
  relative viability: 0.903
201T; first compound 0.4 µM
  relative viability: 0.939
201T; first compound 1.265 µM
  relative viability: 0.871
201T; first compound 4 µM
  relative viability: 0.911
A-427; first compound 0.04 µM
  relative viability: 0.193
A-427; first compound 0.1265 µM
  relative viability: 0.208
A-427; first compound 0.4 µM
  relative viability: 0.158
A-427; first compound 1.265 µM
  relative viability: 0.184
A-427; first compound 4 µM
  relative viability: 0.18
COR-L23; first compound 0.04 µM
  relative viability: 0.202
COR-L23; first compound 0.1265 µM
  relative viability: 0.196
COR-L23; first compound 0.4 µM
  relative viability: 0.168
COR-L23; first compound 1.265 µM
  relative viability: 0.165
COR-L23; first compound 4 µM
  relative viability: 0.109
H3255; first compound 0.04 µM
  relative viability: 0.71
H3255; first compound 0.1265 µM
  relative viability: 0.791
H3255; first compound 0.4 µM
  relative viability: 0.616
H3255; first compound 4 µM
  relative viability: 0.731
LCLC-103H; first compound 0.04 µM
  relative viability: 0.483
LCLC-103H; first compound 0.1265 µM
  relative viability: 0.511
LCLC-103H; first compound 0.4 µM
  relative viability: 0.386
LCLC-103H; first compound 1.265 µM
  relative viability: 0.611
LCLC-103H; first compound 4 µM
  relative viability: 0.345
LCLC-97TM1; first compound 0.04 µM
  relative viability: 0.215
LCLC-97TM1; first compound 0.1265 µM
  relative viability: 0.205
LCLC-97TM1; first compound 0.4 µM
  relative viability: 0.226
LCLC-97TM1; first compound 1.265 µM
  relative viability: 0.148
LCLC-97TM1; first compound 4 µM
  relative viability: 0.0909
LK-2; first compound 0.04 µM
  relative viability: 0.171
LK-2; first compound 0.1265 µM
  relative viability: 0.18
LK-2; first compound 0.4 µM
  relative viability: 0.14
LK-2; first compound 1.265 µM
  relative viability: 0.18
LK-2; first compound 4 µM
  relative viability: 0.16
LU99A; first compound 0.04 µM
  relative viability: 0.29
LU99A; first compound 0.1265 µM
  relative viability: 0.301
LU99A; first compound 0.4 µM
  relative viability: 0.264
LU99A; first compound 1.265 µM
  relative viability: 0.267
LU99A; first compound 4 µM
  relative viability: 0.266
NCI-H1650; first compound 0.04 µM
  relative viability: 0.428
NCI-H1650; first compound 0.1265 µM
  relative viability: 0.396
NCI-H1650; first compound 0.4 µM
  relative viability: 0.346
NCI-H1650; first compound 1.265 µM
  relative viability: 0.174
NCI-H1650; first compound 4 µM
  relative viability: 0.227
NCI-H1651; first compound 0.04 µM
  relative viability: 0.71
NCI-H1651; first compound 0.1265 µM
  relative viability: 0.745
NCI-H1651; first compound 0.4 µM
  relative viability: 0.7
NCI-H1651; first compound 1.265 µM
  relative viability: 0.388
NCI-H1651; first compound 4 µM
  relative viability: 0.455
NCI-H1793; first compound 0.1265 µM
  relative viability: 0.313
NCI-H1793; first compound 0.4 µM
  relative viability: 0.293
NCI-H1793; first compound 4 µM
  relative viability: 0.216
NCI-H1944; first compound 0.04 µM
  relative viability: 0.268
NCI-H1944; first compound 0.1265 µM
  relative viability: 0.274
NCI-H1944; first compound 0.4 µM
  relative viability: 0.261
NCI-H1944; first compound 1.265 µM
  relative viability: 0.239
NCI-H1944; first compound 4 µM
  relative viability: 0.235
NCI-H2347; first compound 0.04 µM
  relative viability: 0.638
NCI-H2347; first compound 0.1265 µM
  relative viability: 0.563
NCI-H2347; first compound 0.4 µM
  relative viability: 0.743
NCI-H2347; first compound 1.265 µM
  relative viability: 0.392
NCI-H2347; first compound 4 µM
  relative viability: 0.398
NCI-H23; first compound 0.04 µM
  relative viability: 0.337
NCI-H23; first compound 0.1265 µM
  relative viability: 0.388
NCI-H23; first compound 0.4 µM
  relative viability: 0.32
NCI-H23; first compound 1.265 µM
  relative viability: 0.284
NCI-H23; first compound 4 µM
  relative viability: 0.251
NCI-H460; first compound 0.04 µM
  relative viability: 0.722
NCI-H460; first compound 0.1265 µM
  relative viability: 0.423
NCI-H460; first compound 0.4 µM
  relative viability: 0.255
NCI-H460; first compound 1.265 µM
  relative viability: 0.0498
NCI-H460; first compound 4 µM
  relative viability: 0.064
NCI-H650; first compound 0.04 µM
  relative viability: 0.765
NCI-H650; first compound 0.1265 µM
  relative viability: 0.72
NCI-H650; first compound 0.4 µM
  relative viability: 0.594
NCI-H650; first compound 1.265 µM
  relative viability: 0.461
NCI-H650; first compound 4 µM
  relative viability: 0.523
NCI-H727; first compound 0.04 µM
  relative viability: 0.594
NCI-H727; first compound 0.1265 µM
  relative viability: 0.665
NCI-H727; first compound 0.4 µM
  relative viability: 0.582
NCI-H727; first compound 1.265 µM
  relative viability: 0.429
NCI-H727; first compound 4 µM
  relative viability: 0.429
NCI-H838; first compound 0.04 µM
  relative viability: 0.234
NCI-H838; first compound 0.1265 µM
  relative viability: 0.256
NCI-H838; first compound 0.4 µM
  relative viability: 0.185
NCI-H838; first compound 1.265 µM
  relative viability: 0.209
NCI-H838; first compound 4 µM
  relative viability: 0.21
PC-14; first compound 0.04 µM
  relative viability: 0.617
PC-14; first compound 0.1265 µM
  relative viability: 0.645
PC-14; first compound 0.4 µM
  relative viability: 0.602
PC-14; first compound 1.265 µM
  relative viability: 0.228
PC-14; first compound 4 µM
  relative viability: 0.257
PC-3 [JPC-3]; first compound 0.04 µM
  relative viability: 0.954
PC-3 [JPC-3]; first compound 0.1265 µM
  relative viability: 0.825
PC-3 [JPC-3]; first compound 0.4 µM
  relative viability: 0.882
PC-3 [JPC-3]; first compound 1.265 µM
  relative viability: 0.863
PC-3 [JPC-3]; first compound 4 µM
  relative viability: 0.702
RERF-LC-KJ; first compound 0.04 µM
  relative viability: 0.58
RERF-LC-KJ; first compound 0.1265 µM
  relative viability: 0.509
RERF-LC-KJ; first compound 0.4 µM
  relative viability: 0.436
RERF-LC-KJ; first compound 1.265 µM
  relative viability: 0.373
RERF-LC-KJ; first compound 4 µM
  relative viability: 0.174
SW 1573; first compound 0.04 µM
  relative viability: 0.169
SW 1573; first compound 0.1265 µM
  relative viability: 0.128
SW 1573; first compound 0.4 µM
  relative viability: 0.166
SW 1573; first compound 1.265 µM
  relative viability: 0.157
SW 1573; first compound 4 µM
  relative viability: 0.162
SW 900; first compound 0.04 µM
  relative viability: 0.533
SW 900; first compound 0.1265 µM
  relative viability: 0.656
SW 900; first compound 0.4 µM
  relative viability: 0.652
SW 900; first compound 1.265 µM
  relative viability: 0.417
SW 900; first compound 4 µM
  relative viability: 0.268
